Patent publication US11583506B1, “Cannabinoids for use in suppressing cancer stem cells” (VIVACELL BIOTECHNOLOGY ESPAÑA S.L.U., priority 2020, dated 2023)
“Also recorded” adds a separate entry of the source.

What was measured:
Format in all cases: cell-based, human
HCT 116 cells = assay: tumorospheres (colonospheres) formation assay; conditions: 7 days of treatment, 1, 2.5, 5 and 10 μM, vs vehicle (DMSO)
Description: Cancer stem cells (CSC) cultured 3-dimentionally in a serum-free medium supplemented with growth factors are able to form floating spheroids known as tumorospheres (Reynolds B A et al. Dev Biol. 1996; 175(1):1-13. doi:10.1006/dbio.1996.0090; Singh S K et al. Cancer Res. 2003; 63(18):5821-8. PMID: 14522905). These cancer cells-derived spheroids have been proven to display CSCs characteristics and recapitulate in vitro the in vivo conditions of cancer growth becoming an ideal model to evaluate anti-CSC drugs (Dieter S M et al. Cell Stem Cell. 2011; 9(4):357-65. doi: 10.1016/j.stem.2011.08.010. PMID: 21982235; Lee C H et al. Oncotarget. 2016; 7(2):1215-26. doi: 10.18632/oncotarget.6261. PMID: 26527320).
To study the CBD effect on colonospheres proliferation, a tumorospheres formation assay was performed. Briefly, human colorectal carcinoma HCT 116 cells (ATCC No. CCL-247) were trypsinized, quantified and seeded at clonal density (5 cell/μL) in ultra-low attachment surface 96-well plates (Corning-Costar. Coming, N.Y., USA) with serum free Dulbecco's Modified Eagle's Medium (DMEM)/Nutrient Mixture F-12 Ham (Sigma-Aldrich. St. Louis, Mo., USA) supplemented with 1X B-27 (Invitrogen, Carlsbad, Calif., USA), 10 ng/mL basic fibroblast growth factor (bFGF; PeproTech. London, UK), 20 ng/mL epidermal growth factor (EGF; Santa Cruz Biotechnology, Heidelberg, Germany), 1% (v/v) methylcellulose (R&D Systems. Minneapolis, Minn., USA) to prevent cell aggregation and the corresponding dose of vehicle (DMSO) or CBD concentration (1, 2.5, 5 and 10 μM). Every 2-3 days freshly supplements were added and the number and size of colonospheres were analysed by optical microscopy 1 week after seeding.

Notch1 [1] = assay: Notch1 expression in colonospheres by western blot; conditions: colonospheres after 7 days of treatment, 1 and 5 μM, western blot normalized to Actin
Procedure: (§1) In cancer stem cells Notch1 signalling pathway is abnormally activated (Venkatesh V et al. Stem Cell Investig. 2018 Mar. 12; 5:5. doi: 10.21037/sci.2018.02.02. PMID: 29682512). For this reason, to further analyse the anti-proliferative CBD effect on colonospheres formation, Notch1 expression was investigated by western blot analysis. Briefly, after treatments, the colonospheres were washed with PBS1X and whole-cell proteins were extracted in 50 μL of lysis buffer (50 mM Tris-HCl pH 7.5, 150 mM NaCl, 10% glycerol and 1% NP-40) supplemented with 10 mM NaF, 1 mM Na3VO4, 10 μg/mL leupeptine, 1 μg/mL pepstatin and aprotinin, and 1 μL/mL phenylmethylsulfonyl fluoride saturated. Protein concentration of the whole-cell lysates was quantified by absorbance at 595 nm using Bradford reagent compared to a bovine serum albumin standard curve. Then, forty micrograms of protein were boiled at 95° C. in Laemmli buffer and electrophoresed in 10% SDS/PAGE gels. […] After washing membranes, horseradish peroxidase-conjugated secondary antibody was added and the protein bands on the membranes were detected with ECL reagent (BioRad. Hercules, Calif., USA) by chemiluminescence system (GE Healthcare Europe GmbH. Munich, Germany).
The densitometry analysis was performed using ImageJ software, and the quantified band intensities were normalized to Actin. […]

Notch1 [2] = assay: Notch1 levels in HCT 116 cells by western blot; conditions: for Notch1 levels, panel of natural cannabinoids / Notch1 expression levels, concentration dependence: HCT 116 cells; for Notch1 levels, panel of natural cannabinoids: 24 hours, 10 μM; for Notch1 expression levels, concentration dependence: 24 hours, 1, 2.5, 5 and 10 μM
Procedure: In cancer stem cells Notch1 signalling pathway is abnormally activated (Venkatesh V et al. Stem Cell Investig. 2018 Mar. 12; 5:5. doi: 10.21037/sci.2018.02.02. PMID: 29682512). For this reason, to further analyse the anti-proliferative CBD effect on colonospheres formation, Notch1 expression was investigated by western blot analysis. Briefly, after treatments, the colonospheres were washed with PBS1X and whole-cell proteins were extracted in 50 μL of lysis buffer (50 mM Tris-HCl pH 7.5, 150 mM NaCl, 10% glycerol and 1% NP-40) supplemented with 10 mM NaF, 1 mM Na3VO4, 10 μg/mL leupeptine, 1 μg/mL pepstatin and aprotinin, and 1 μL/mL phenylmethylsulfonyl fluoride saturated. Protein concentration of the whole-cell lysates was quantified by absorbance at 595 nm using Bradford reagent compared to a bovine serum albumin standard curve. Then, forty micrograms of protein were boiled at 95° C. in Laemmli buffer and electrophoresed in 10% SDS/PAGE gels. Separated proteins were transferred to polyvinylidene difluoride (PVDF) membranes (20V for 30 min) and blocked in TBSIX solution containing 0.1% Tween 20 and 5% non-fat dry milk for 1 hour at room temperature. Immunodetection of specific proteins was carried out by incubation with primary antibody against human Notch1 (1:1000 dilution. Ref. #ab52627, Abcam. Cambridge, UK) and β-actin (1:10.000 dilution. Ref. #A5316, Sigma-Aldrich. St. Louis, Mo., USA) overnight at 4° C. After washing membranes, horseradish peroxidase-conjugated secondary antibody was added and the protein bands on the membranes were detected with ECL reagent (BioRad. Hercules, Calif., USA) by chemiluminescence system (GE Healthcare Europe GmbH. Munich, Germany).
The densitometry analysis was performed using ImageJ software, and the quantified band intensities were normalized to Actin. […] Thus, it can be concluded that the reduction of Notch1 levels is critical to inhibit the colonospheres proliferation.
(§2) To gain insight into the CBD effect on Notch1 pathway, a deep study using the human colorectal carcinoma HCT 116 cell line (ATCC No. CCL-247) was performed to analyse Notch1 levels. […] Moreover, the Hes5 protein level, a Notch signalling-related protein, was also analysed by western blot following the methodology explained above and using a specific primary antibody (Human anti-Hes5. 1:1000 dilution. Ref. #ab25374, Abcam. Cambridge, UK). […] To further clarify the CBD mechanism of causing a reduced Notch1 expression, HCT 116 cells were incubated with the proteasome inhibitor MG132 and/or with CBD.
A panel of natural cannabinoids CBDA, CBDV, CBC, CBCA, CBCV, CBG, CBGA, CBGV, CBGVA, CBN, THC and THCA were evaluated in its capacity to reduce Notch1 levels in human colorectal carcinoma HCT 116 cell line. CBD was purchase from Endoca BV (Netherlands). CBDA, CBDV, CBCA, CBG, CBGA, THC and […] were purchased from Phytoplant Research S.L (Cordoba, Spain). CBC, CBCV, CBGV, CBGVA and CBN were provided by the laboratory of the Professor Giovanni Appendino from the University of Piemonte Orientale (Novara, Italy).

Hes5 = Hes5 protein level in HCT 116 cells by western blot; conditions: 10 μM, 6, 16 and 24 hours
Procedure: as §1, with “Germany). […]” for “Germany).”

Notch1 [3] = assay: Notch1 degradation with proteasome inhibitor MG132 in HCT 116 cells; conditions: 24 hours, 10 μM CBD and/or 10 μM MG-132
Procedure: as §2

Notch1 [4] = assay: Notch1 expression in Hct116 cancer cell line; conditions: Hct116 (Colon)
Procedure: (§3) The effect of CBGV on Notch1 expression levels was evaluated in a panel of cancer cell lines. Human colorectal carcinoma Hct116 (No. CCL-247), human colorectal adenocarcinoma HT-29 (No. HTB-38), human brain neuroblastoma SK—N—SH (No. HTB-11), human breast adenocarcinoma MDA-MB-231 (No. HTB-26), human prostate adenocarcinoma PC3 (No. CRL-1435), human prostate carcinoma DU-145 (No. HTB-81), human lung carcinoma A549 (No. CCL-185) and human lung carcinoma H1299 (No. CRL-5803) cell lines were obtained from the American Type Culture Collection (ATCC, USA).

Notch1 [5] = assay: Notch1 expression in HT-29 cancer cell line; conditions: HT-29 (Colon)
Procedure: as §3

Notch1 [6] = assay: Notch1 expression in SK-N-SH cancer cell line; conditions: SK-N-SH (Brain)
Procedure: as §3

Notch1 [7] = assay: Notch1 expression in MDA-MB-231 cancer cell line; conditions: MDA-MB-231 (Breast)
Procedure: as §3

Notch1 [8] = assay: Notch1 expression in PC3 cancer cell line; conditions: PC3 (Prostate)
Procedure: as §3

Notch1 [9] = assay: Notch1 expression in DU145 cancer cell line; conditions: DU145 (Prostate)
Procedure: as §3

Notch1 [10] = assay: Notch1 expression in A549 cancer cell line; conditions: A549 (Lung)
Procedure: as §3

Notch1 [11] = assay: Notch1 expression in H1299 cancer cell line; conditions: H1299 (Lung)
Procedure: as §3

SMILES	colonospheres formation (HCT 116 cells)	Notch1 levels in colonospheres (Notch1 [1])	Notch1 protein levels in HCT 116 cells (dose and time dependence) (Notch1 [2]; 1, 2.5, 5 and 10 μM for 24 hours, 10 μM at 6, 16 and 24 hours)	Notch1 levels, panel of natural cannabinoids (Notch1 [2])	Hes5 expression levels (Hes5)	Notch1 degradation through the proteasome (Notch1 [3])	Notch1 expression levels, concentration dependence (Notch1 [2])	Inhibition of Notch1 expression in cancer cells (Notch1 [4])	Inhibition of Notch1 expression in cancer cells (Notch1 [5])	Inhibition of Notch1 expression in cancer cells (Notch1 [6])	Inhibition of Notch1 expression in cancer cells (Notch1 [7])	Inhibition of Notch1 expression in cancer cells (Notch1 [8])	Inhibition of Notch1 expression in cancer cells (Notch1 [9])	Inhibition of Notch1 expression in cancer cells (Notch1 [10])	Inhibition of Notch1 expression in cancer cells (Notch1 [11])
C=C(C)[C@@H]1CCC(C)=C[C@H]1c1c(O)cc(CCCCC)cc1O [CBD, cannabidiol]	significantly reduces the colonospheres formation in a clear dose-dependent manner	clearly diminished in a dose-dependent manner; also recorded: reduces Notch1 expression levels in colonospheres	reduces Notch1 protein levels in HCT 166 cells in a dose- and time-dependent manner; also recorded: reduces Notch1 expression levels in colonospheres and HCT 116 cells	clearly diminished Notch1 levels; also recorded: reduce Notch1 expression levels	clearly reduces Hes5 expression levels in HCT 116 cells in a time-dependent manner; also recorded: reduces the expression of Hes5	induces Notch1 degradation by the proteasomal degradation machinery; also recorded: induces Notch1 degradation through the proteasome	–	–	–	–	–	–	–	–	–
C=C(C)[C@@H]1CCC(C)=C[C@H]1c1c(O)cc(CCC)cc1O [CBDV, cannabidivarin]	potent dose-dependent anti-proliferative effect of colonospheres formation; also recorded: inhibit colonospheres formation	–	–	clearly diminished Notch1 levels; also recorded: reduce Notch1 expression levels	–	–	reduce Notch1 expression levels in a concentration-dependent manner	–	–	–	–	–	–	–	–
CCCc1cc(O)c(C/C=C(\C)CCC=C(C)C)c(O)c1 [CBGV, cannabigerovarin]	potent dose-dependent anti-proliferative effect of colonospheres formation; also recorded: inhibit colonospheres formation	–	–	clearly diminished Notch1 levels; also recorded: reduce Notch1 expression levels	–	–	reduce Notch1 expression levels in a concentration-dependent manner	Yes	Yes	Yes	Yes	Yes	Yes	Yes	Yes
